Reference: patent US9119808B1, “Treating neurodegenerative diseases with GGA or a derivative thereof” (COYOTE PHARMACEUTICALS, INC., priority 2012, dated 2015)

Experiments:
[1] = tested on: HSP70 expression in Neuro2A cells; assay: HSP70 expression by Western blot in treated Neuro2A cells (Assay 1a/1b); assay type: cell-based, murine; conditions: for HSP70 Expression, HSP70 by Western Blot: Neuro2A cells, Assay 1a screen at 1 μM
Description: HSP70 expression in neuro2A cells treated with CNS-102 analogs are examined, using Western blot analysis. An increased expression of HSP70 will indicate the candidate molecule has the prerequisite activity. This assay has a Z factor of […] and a CV of 11% for CNS-102 at 1 nM to 100 nM.
A preliminary screen and quantitative performance evaluation, and a confirmatory neuroprotective assay are developed from a model of motor neuron dysfunction in a PNS cell line.
The overall strategy, therefore, is to use a sequence of assays, each of which is targeted to address a specific aspect of the disease with the goal of identifying candidates having multiple therapeutic capabilities. These assays are chosen such that a failure to perform at any stage is expected to be fatal to the candidate's suitability as a viable ALS treatment. To this end, the following four therapeutic capabilities and corresponding assays were chosen as shown in the list below. The advancement criteria, as well as assay design where relevant, are also presented. • 1. In some embodiments, the candidates increase HSP70 expression in target cells. The initial screen (pass/fail, Assay 1a) and quantitative evaluation (EC50, Assay 1b) of candidates will use a HSP70 expression assay by Western blot on cellular extracts of treated Neuro2A cells. The screen, Assay 1a, is conducted at a single concentration, requiring a specific level of activity to pass into Assay 1b, the quantitative dose/response determination of the EC50. Only those candidates having an ECK, below 10 nM would be promoted to Assay 2. • 2. In some embodiments, the candidates increase neuronal cell health/growth in the presence of specific inhibitors of GGTase I. The ability of candidates to promote neurite extension will be measured on Neuro2A cells to model whole-cell activities important to synaptic connections and neuronal function. […] Neuroprotection afforded by candidates that have passed the first two assays will be determined on rat hippocampal neurons facing kainic acid induced damage. […] This confirmation will be determined in the SOD1 mouse model.

[2] = tested on: neuro2A neuroblastoma cell lines; assay: Neurite outgrowth in Neuro2A cells challenged with GGTase I inhibitor GGTI-298 (Assay 2); assay type: cell-based, murine; conditions: @ 10 nM, GGTI-298 challenge
Description: Neurite outgrowth in neuro2A neuroblastoma cell lines has been widely used as a cellular model for compounds screening in the CNS drug discovery and research. IN some embodiments, the effects of CNS-102 analogs on neurite outgrowth is determined. Cells will be pre-treated with candidates and then subjected to a challenge with GGTase I inhibitor GGTI-298. Retinoic Acid will be added to start the differentiation of these cells. This will identify analogs that protect neurite outgrowth, which is known to be important for establishing synaptic connections and neuronal functions. This assay has a Z factor of 0.4 and a CV of 11% for CNS-102 at 10 nM to 1 μM.
(§1) The overall strategy, therefore, is to use a sequence of assays, each of which is targeted to address a specific aspect of the disease with the goal of identifying candidates having multiple therapeutic capabilities. These assays are chosen such that a failure to perform at any stage is expected to be fatal to the candidate's suitability as a viable ALS treatment. To this end, the following four therapeutic capabilities and corresponding assays were chosen as shown in the list below. The advancement criteria, as well as assay design where relevant, are also presented. • 1. In some embodiments, the candidates increase HSP70 expression in target cells. The initial screen (pass/fail, Assay 1a) and quantitative evaluation (EC50, Assay 1b) of candidates will use a HSP70 expression assay by Western blot on cellular extracts of treated Neuro2A cells. The screen, Assay 1a, is conducted at a single concentration, requiring a specific level of activity to pass into Assay 1b, the quantitative dose/response determination of the EC50. Only those candidates having an ECK, below 10 nM would be promoted to Assay 2. • 2. In some embodiments, the candidates increase neuronal cell health/growth in the presence of specific inhibitors of GGTase I. The ability of candidates to promote neurite extension will be measured on Neuro2A cells to model whole-cell activities important to synaptic connections and neuronal function. Candidates showing >200 cells with outgrowth would be promoted to Assay 3. • 3. In some embodiments, the candidates provide protection to nerve tissue from excitotoxins. Neuroprotection afforded by candidates that have passed the first two assays will be determined on rat hippocampal neurons facing kainic acid induced damage. This is the final animal model before the ALS disease model and candidates that provide >50% protection would be tested in the disease model. • 4. In some embodiments, the candidates increase median survival time by 25% and improve neurological performance compared to control. This confirmation will be determined in the SOD1 mouse model.

rat hippocampal neurons = assay: Rat neuroprotection model, kainic acid induced excitotoxic neuron loss in hippocampus (Assay 3); assay type: in vivo; conditions: for Rat Neuroprotection, % Protection: kainic acid rat model, 2 or 20 mg/kg
Description: Excitotoxicity has been considered as one of the major causes for neuron loss in ALS. A probable cause for excitotoxic neuron death is excess glutamate around the synapses, due to impaired glutamate reuptake capabilities. Intra-cerebral infusion of kainic acid is a well-established and robust model for excitotoxic neuron death that has been used to investigate excitotoxicity for over fifty years. Compounds are tested, e.g., at two concentrations and compare to a vehicle control in a model that quantifies neuron loss in the CA3 area of the hippocampus. Such tests can evaluate blood brain barrier penetration and select compounds that provide neuroprotection from excitotoxic damage.
as §1

SOD1 mouse model of ALS = assay: SOD1 mouse model of ALS: survival and cat-walk gait (Assay 4); assay type: in vivo; conditions: for Run Duration, CNS-102-vehicle difference of averages / Stride Length, CNS-102-vehicle difference of averages / Swing Speed, CNS-102-vehicle difference of averages: cat-walk
Description: Analyses were conducted using PROC LIFEREG in SAS.
Additionally, three neurological function outcomes were chosen for analysis from those measured on a ‘cat-walk’ at irregular intervals over the duration of the study; stride length (cm), run duration (s), and swing speed (cm/s).
This non-random censoring of the treatment group data precluded using standard comparative statistical methods such as the t-test due the unverifiable compliance of the remaining data with required statistical test assumptions. Consequently, a Monte Carlo estimate of the p-value of the treatment differences was constructed using the bootstrap method.
Survival studies and behavioral tests will be performed in the SOD1 G93A model of ALS. This transgenic mouse harbors a point mutation (G93A), found in familial ALS, in the gene encoding for superoxide dismutase 1 (SOD1). This very well characterized mouse model is widely used in ALS research. […] Motor neuron death in the ventral horn of the spinal cord and loss of myelinated axons in the ventral motor roots lead to paralysis and muscle wasting. Mice initially develop normally and gain weight until approximately 100 days of age. At this point, weight loss (which is usually defined as the onset of disease), muscle weakness, and gradual paralysis start at the hind limbs and muscle wasting start to appear. […] This means that drug efficacy studies using this model can be performed within a relatively short time frame of 4-5 months. To rigorously test the efficacy of candidates in this mouse model, neurological scores are monitored, and motor scores, life span, body weight and mice tested in a battery of behavioral paradigms suitable for motor assessment.

GGTase I = GGTase I (Homo sapiens, UniProt P53609); assay: GGTase I activity detected by fluorescent peptide dansyl-GCVLL; assay type: biochemical
Water solubility = assay type: physicochemical
Text: The chemical structure of CNS-102 is shown. We have characterized CNS-102 (MW 330) by ^1H NMR, LC, and ESI mass spectrometry and no evidence of cis isomer was found. […] Such can enable CNS-102 to cross the blood brain barrier.

[3] = Bioavailability and brain penetration; conditions: in vivo
SOD1 G93A = conditions: pre-symptomatic administration or treatment at disease onset; cited from earlier work
cultured spinal neurons = conditions: low concentration (1 nM-100 nM); cited from earlier work

## CC(=O)CC/C=C(\C)CC/C=C(\C)CC/C=C(\C)CCC=C(C)C [CNS-102, 5E,9E,13E-geranylgeranylacetone]
[1]; murine Neuro2A cells, HSP70 and HSP90 found
  expression of HSPs: increases expression of HSPs
[2]
  Neurite Outgrowth, Cell count relative to negative control: 2.00
Rat hippocampal neurons; hippocampus, locally injected kainic acid, following a single oral dose
  time of peak protection: 72 h
Rat hippocampal neurons
  Rat Neuroprotection, % Protection: 40%
Rat hippocampal neurons; rat kainic acid induced neurotoxicity model, HSP70 in hippocampus and cerebral cortex, HSP60, HSP70, HSP90 upregulated
  expression of HSPs: increases expression of HSPs
SOD1 mouse model of ALS; SOD1 mouse model
  SOD1 Mouse Model, Survival and clinical scores: increase in survival: 9% increase
SOD1 mouse model of ALS; SOD1 mouse model, daily treatments, N=16/treatment
  Increase over vehicle (median survival time): 9%
SOD1 mouse model of ALS; SOD1 mouse model, difference between drug groups not statistically significant at p=0.05
  improvement in median survival, CNS-102 outperformed riluzole by: 50%
SOD1 mouse model of ALS; age P120 ± 1
  Run Duration, CNS-102-vehicle difference of averages: -1.68 s
  Stride Length, CNS-102-vehicle difference of averages: 1.46 cm
  Swing Speed, CNS-102-vehicle difference of averages: 14.58 cm/s
SOD1 mouse model of ALS; age P124 ± 3
  Run Duration, CNS-102-vehicle difference of averages: -1.49 s
  Stride Length, CNS-102-vehicle difference of averages: 1.87 cm
  Swing Speed, CNS-102-vehicle difference of averages: 11.70 cm/s
GGTase I
  GGTase I activity: modulates GGTase I activity
Water solubility
  intrinsic water solubility: little intrinsic water solubility
[3]
  bioavailability and brain penetration: excellent

## CC/C(=C\CCC(=O)C12CC3CC(CC(C3)C1)C2)CC/C=C(\C)CC/C=C(\C)CCC=C(C)C [CNS-G001]
[1]
  HSP70 Expression, HSP70 by Western Blot: 2.00 × PBS
[2]
  Neurite Outgrowth, Cell count relative to negative control: 1.79
Rat hippocampal neurons
  Rat Neuroprotection, % Protection: 37%

## CCCCCNC(=O)OC(C)CC/C=C(\C)CC/C=C(\C)CCC=C(C)C (stereo not drawn) [CNS-G002]
[2]
  Neurite Outgrowth, Cell count relative to negative control: 1.79

## CC(=O)CC/C=C(\C)CC/C=C(\C)CC/C=C(\C)CC/C=C(\C)CCC=C(C)C [CNS-G003]
[2]
  Neurite Outgrowth, Cell count relative to negative control: 2.74
Rat hippocampal neurons
  Rat Neuroprotection, % Protection: 82%

## CC(C)=CCC/C(C)=C/CC/C(C)=C/CC/C(C)=C/COC(=O)C1CCCCC1 [CNS-G004]
[2]
  Neurite Outgrowth, Cell count relative to negative control: 2.61
Rat hippocampal neurons
  Rat Neuroprotection, % Protection: 76%

## CC(C)=CCC/C(C)=C/CC/C(C)=C/CC/C(C)=C/CC1CCCCC1=O (stereo not drawn) [CNS-G005]
[1]
  HSP70 Expression, HSP70 by Western Blot: 2.78 × PBS
[2]
  Neurite Outgrowth, Cell count relative to negative control: 2.28
Rat hippocampal neurons
  Rat Neuroprotection, % Protection: 83%

## [O-][n+]1cccc(/C(Cl)=N/OC[C@H](O)CN2CCCCC2)c1 [arimoclomol]
SOD1 G93A
  extension of life span: approximately 5 weeks

## geranylgeranyl acetone [GGA]
Cultured spinal neurons
  proteasome inhibitor induced neurotoxicity: reduce proteasome inhibitor induced neurotoxicity
